# Patent publication EP4732839A1, “USE OF COMPOUND IN TREATMENT OF LIVER DISEASES” (priority 2023, dated 2025)
# pIC50: −log10 of the molar value. Values joined by “and” are separate entries in the source; they are usually repeats but may differ in a detail not shown here. Identical values can stand only once.
# Tests used:
# [1] = tested on: H22-luc; details: H22-luc orthotopic model, 3 mpk, IG, QW × 3, BLI 21 days post-dose, P < 0.0001
# Experimental: The cells were placed in an incubator at 37 °C with 5% CO2 and passaged every 1 to 2 days depending on the cell density.
# The cell concentration (H22-luc, 2.0E8/mL) was adjusted, and the cells were mixed well with Matrigel at a ratio of 1:1. The mixture was placed on ice for subsequent injection experiments, and was mixed thoroughly by shaking with Vortex before use.
# • (1) The mice were weighed before surgery and anesthetized by intraperitoneal injection of avertin at 0.15 mL/10 g body weight. […] The needle was inserted into the liver at a 30-degree angle relative to the liver surface. After the needle was inserted, the needle was made parallel to the tabletop and advanced in parallel for about 3 mm. 10 µL of H22-luc cell suspension was slowly injected, and a rapid whitening (white plaque) or turbid translucent vacuolation over most of the liver lobe in the injection area was observed. • (5) After injection, a cotton swab was used to apply slight pressure at the needle insertion site while the needle was slowly withdrawn. The cotton swab was removed until no bleeding was observed. • (6) The liver lobe was gently pushed back into the abdominal cavity, and the muscle layer and skin were sutured.
# The experimental data were analyzed using Graphpad Prism 8. The experimental data were expressed as mean ± SD.
# [2] = Liver tissue distribution after single intragastric administration; details: 10 mg/kg single intragastric, ICR mice; for AUC(0-t) at 24 h: mouse, in vivo, po, 10 mg/kg, area under curve at 24 h post-dose
# Experimental: The specific regimen was as follows: Before administration, the state of the formulation for administration was inspected, and the homogeneity of the formulation was ensured by vortexing, stirring, or shaking. The theoretical dose for each mouse was calculated according to the following formula. The actual dose for each ICR mouse and the collection time for plasma and tissue samples were required to be recorded in detail in corresponding tables. Theoretical administration volume (mL) = ((Dose(mg⋅kg^−1))/(Concentration of test solution (mg⋅((mL))^−1))) × Animal body weight (kg) [formula]
# Plasma sample collection: At each designated time point, about 100 µL of blood was collected from the orbit, and the collected whole blood was placed in an EDTA-K2 anticoagulation tube, inverted several times to mix thoroughly, stored on wet ice, and centrifuged (at 1500 g to 1600 g) for 10 min within 30 min to separate the plasma. The resulting plasma sample was stored at -40 °C to -20 °C for biological sample analysis.
# The specific procedures for liver tissue collection were as follows: Liver tissues were collected immediately after whole blood collection. The liver tissues were collected, washed with ice-cold normal saline, dehydrated, weighed, and homogenized in 20% methanol-water at a ratio of 1:5 (w/v). The collection time of tissues and the weight of homogenized tissues were required to be recorded in detail in corresponding tables.
# The plasma and various tissue homogenates were stored in a refrigerator at -40 °C to -20 °C for sample analysis. After the experiment was completed, the mice were euthanized by carbon dioxide asphyxiation or cervical dislocation. After the analysis was completed, the samples were returned to the biological sample room, and transferred to an environment at -40 °C to -20 °C for storage according to SOP-SM-001.
# The corresponding pharmacokinetic parameters of plasma and liver tissues were calculated using a non-compartmental model in Phoenix WinNonlin 8.0 or later versions, and the area under curve AUC0-t (AUC0-t, the area under the concentration-time curve at 24 h post-dose) was calculated. The liver/plasma drug distribution ratio (RL/P) was then calculated.
# [3] = Liver microsome metabolic stability (murine); details: Murine liver microsomes, 1 µM compound, 1 mg/mL, NADPH, 37 °C
# Experimental: The metabolic stability of the compounds in in vitro liver microsomes was evaluated. The procedures and steps were as follows: At 37 °C, 1 µM of the compounds was incubated in 1 mg/mL liver microsomes. The reaction system was a 0.1 M potassium phosphate buffer (pH 7.4) containing 3 mmol/L MgCl2 and 1 mmol/L NADPH. At the beginning of the reaction, the small molecules and the liver microsomes were pre-incubated at 37 °C for 10 min, and subsequently a cofactor NADPH was added to initiate the metabolic reaction. The reaction was quenched at 0 min, 5 min, 10 min, 20 min, 30 min, and 60 min using three volumes of ice-cold methanol containing an internal standard (200 nM labetalol). After incubation at room temperature for 10 min, the samples were centrifuged at 4000 rpm at 4 °C for 20 min, and the supernatants were collected, diluted with chromatography-grade purified water in a 1:1 ratio, and then subjected to quantitative analysis. […] After a 6-minute chromatographic separation on a C18 column (50 × 2.1 mm; 2.6 µm) under a gradient mobile phase of 0.1% formic acid in water, the peaks corresponding to specified ionic signals were detected. […]
# (§1) The metabolic half-life (T1/2) and the metabolic clearance rate (CLint(mic)) (µL/min/mg) were calculated using a first-order kinetic equation.
# [4] = 3/10/20 mpk i.g., livers collected 1 h, 2 h, 4 h post-dose
# Experimental: C57BL/6J wild-type female mice (6 weeks old) were randomly grouped. After administration at different doses, whole blood and liver tissues of the mice were separately collected at 1 h, 2 h, and 4 h for detection of a plurality of parameters to evaluate the effect of the drugs on the liver.
# Liver tissues and blood were collected at 1 h, 2 h, and 4 h after single dosing.
# The supernatant was collected and stored (-20 °C); • (3) IFN-α, IP-10, IL-6, and TNF-α were detected using an ELISA kit. • (C) Remaining liver tissue-HE staining and pathological evaluation. • (D) 1/2 blood (whole blood)-liver function parameter detection: AST (aspartate aminotransferase), ALT (alanine aminotransferase/glutamate pyruvate transaminase), ALP (alkaline phosphatase), ALB (albumin), and GGT (γ-glutamyl transferase). • (E) 1/2 blood-serum preparation-reserve for ELISA.
# [5] = molecular target: hERG potassium channel (Homo sapiens, UniProt Q12809); experiment: hERG whole-cell patch-clamp; type: cell-based; details: whole-cell patch-clamp; read-out: hERG (IC50)
# Sequence of hERG potassium channel (Q12809 whole entry): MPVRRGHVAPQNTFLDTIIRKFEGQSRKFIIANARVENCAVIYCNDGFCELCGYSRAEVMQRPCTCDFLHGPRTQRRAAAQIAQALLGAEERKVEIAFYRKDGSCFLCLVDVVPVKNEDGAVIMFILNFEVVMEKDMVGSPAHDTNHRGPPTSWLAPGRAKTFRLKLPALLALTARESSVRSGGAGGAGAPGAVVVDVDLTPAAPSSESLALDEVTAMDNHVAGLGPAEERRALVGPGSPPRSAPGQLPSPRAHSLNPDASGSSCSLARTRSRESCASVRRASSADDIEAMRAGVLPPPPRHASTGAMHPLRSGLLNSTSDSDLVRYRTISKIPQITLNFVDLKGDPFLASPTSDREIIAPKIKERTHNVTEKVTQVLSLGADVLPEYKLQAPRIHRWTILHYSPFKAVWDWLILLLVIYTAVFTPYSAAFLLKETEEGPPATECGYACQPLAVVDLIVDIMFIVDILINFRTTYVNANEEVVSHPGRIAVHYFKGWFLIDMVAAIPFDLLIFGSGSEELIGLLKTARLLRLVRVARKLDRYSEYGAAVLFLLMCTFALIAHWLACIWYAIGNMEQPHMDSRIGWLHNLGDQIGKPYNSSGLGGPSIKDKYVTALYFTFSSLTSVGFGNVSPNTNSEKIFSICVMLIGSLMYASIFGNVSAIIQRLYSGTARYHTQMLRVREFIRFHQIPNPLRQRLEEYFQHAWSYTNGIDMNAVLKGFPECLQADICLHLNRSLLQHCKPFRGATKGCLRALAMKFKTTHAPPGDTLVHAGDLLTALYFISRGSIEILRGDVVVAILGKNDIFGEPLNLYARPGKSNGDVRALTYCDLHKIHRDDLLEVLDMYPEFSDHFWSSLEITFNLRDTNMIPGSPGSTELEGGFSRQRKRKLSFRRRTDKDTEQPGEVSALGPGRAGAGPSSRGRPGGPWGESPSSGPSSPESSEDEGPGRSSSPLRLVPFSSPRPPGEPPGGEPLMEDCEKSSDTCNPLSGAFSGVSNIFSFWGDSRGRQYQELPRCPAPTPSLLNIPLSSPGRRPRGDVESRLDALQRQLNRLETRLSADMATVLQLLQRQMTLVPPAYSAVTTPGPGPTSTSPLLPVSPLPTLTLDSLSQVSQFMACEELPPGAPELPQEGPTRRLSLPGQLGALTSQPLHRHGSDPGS
# Text: The rapidly activated potassium channel encoded by human ether-a-go-go-related gene (hERG) is an important ion channel involved in the formation of cardiac action potential phase 3 repolarization. Drug-induced blockade of hERG channels can lead to delayed cardiac repolarization, manifested as QT interval prolongation on the electrocardiogram, known as long QT syndrome. Drug-induced delayed ventricular repolarization may, under certain circumstances, trigger fatal arrhythmias-torsade de pointes-type ventricular tachycardia. In this study, the whole-cell patch-clamp technique (the standard method for hERG safety assessment) was employed to evaluate the inhibitory effects of the small-molecule compounds on the hERG potassium channel and to assess the risk of ventricular repolarization toxicity.
# [6] = tested on: Peripheral blood mononuclear cells (hPBMCs); experiment: Cytokine secretion after stimulation of PBMCs; details: hPBMCs from 3 donors, 24 h of stimulation
# [7] = in vitro; details: human, microsomes, pH 7.4
# Experimental: The metabolic stability of the compounds in in vitro liver microsomes was evaluated. The procedures and steps were as follows: At 37 °C, 1 µM of the compounds was incubated in 1 mg/mL liver microsomes. The reaction system was a 0.1 M potassium phosphate buffer (pH 7.4) containing 3 mmol/L MgCl2 and 1 mmol/L NADPH. At the beginning of the reaction, the small molecules and the liver microsomes were pre-incubated at 37 °C for 10 min, and subsequently a cofactor NADPH was added to initiate the metabolic reaction. The reaction was quenched at 0 min, 5 min, 10 min, 20 min, 30 min, and 60 min using three volumes of ice-cold methanol containing an internal standard (200 nM labetalol). After incubation at room temperature for 10 min, the samples were centrifuged at 4000 rpm at 4 °C for 20 min, and the supernatants were collected, diluted with chromatography-grade purified water in a 1:1 ratio, and then subjected to quantitative analysis. […] After a 6-minute chromatographic separation on a C18 column (50 × 2.1 mm; 2.6 µm) under a gradient mobile phase of 0.1% formic acid in water, the peaks corresponding to specified ionic signals were detected. […] The detailed operation process was as follows: • 1) The compound working solution was added to all 96-well reaction plates (T0, T5, T10, T20, T30, and T60) at 10 µL/well, except the blank wells. • 2) The microsomal solution was added to all the reaction wells (T0, T5, T10, T20, T30, T60, and blank wells) at 80 µL/well. • 3) The plates were pre-incubated at 37 °C for 10 min. • 4) After pre-incubation, NADPH was added to each reaction plate at 10 µL/well to initiate the reaction. • 5) At the set end time point, a 4 °C methanol solution (containing an internal standard: 200 nM labetalol) was added to each reaction plate at 300 µL/well to quench the reaction. • 6) Each plate was sealed and shaken for 10 min. • 7) The mixture was shaken well and centrifuged at 4000 rpm at 4 °C for 20 min. • 8) 300 µL of the supernatant was collected, and HPLC-grade water was added at 300 µL/well. The mixture was well mixed and then subjected to LC-MS analysis.
# as §1
# [8] = physchem; details: phosphate buffer, pH 7.4, aqueous buffer
structure (smiles),measurement,setting,value
COCCNc1nc(N)nc2ccc(Cc3ccc(CN4CCOCC4)cc3)nc12 [Compound II],TGI,[1],83.4%
same,AUC0-t ratio (liver/plasma),[2],114
same,liver/plasma drug distribution ratio,[2],114 fold
same,Drug concentration ratio (liver/plasma),[2]; 0.25h,610
same,Mean drug concentration (liver),[2]; 0.25h,30980 ng/g
same,Mean drug concentration (plasma),[2]; 0.25h,50.8 ng/mL
same,Drug concentration ratio (liver/plasma),[2]; 1 h,134
same,Mean drug concentration (liver),[2]; 1 h,8780 ng/g
same,Mean drug concentration (plasma),[2]; 1 h,65.6 ng/mL
same,Drug concentration ratio (liver/plasma),[2]; 4h,71.3
same,Mean drug concentration (liver),[2]; 4h,1990 ng/g
same,Mean drug concentration (plasma),[2]; 4h,27.9 ng/mL
same,Drug concentration ratio (liver/plasma),[2]; 24h,79.4
same,Mean drug concentration (liver),[2]; 24h,327 ng/g
same,Mean drug concentration (plasma),[2]; 24h,4.12 ng/mL
same,AUC(0-t) at 24 h,[2]; AUC0-t (liver),58100 ng·h/mL
same,AUC(0-t) at 24 h,[2]; AUC0-t (plasma),510 ng·h/mL
same,k,[3],0.0460 L/min
same,Liver HE staining,[4],did not cause apparent pathological damage to the liver tissues
same,pIC50,[5],5.37 and < 5.00
same,IFN-α stimulating activity,[6],strong
same,"IFN-α, IFN-γ, and IL-1240 secretion","[6]; 4 concentrations, compared with GS-9688",significantly stronger activity and magnitude
same,half-life at 1 µM,[7],35.1 min
same,microsomal CLint at 1 µM,[7],39.5 µL/min/mg
same,solubility,[8],1010 µM
